Patent publication US4591599A, “Perfluoropyrrolizines and emulsions thereof useful as blood substitutes” (The Green Cross Corporation, priority 1984, dated 1986)

Columns and labels:
Wister-strain male rats = assay: Acute toxicity test; type: in vivo; details: 100 ml/kg-body weight, intravenous, observed for one week
Protocol: The acute toxicity test on the preparations of the present invention was carried out using the preparations of the present invention shown in Table 4 which had been physiologically isotonized. The test animals used were Wister-strain male rats (weighing 100-120 g).

[1] = Distribution of perfluoro-compound in organs (gas chromatography); type: in vivo, Wister-strain male rats; details: 4 g/kg, tail vein, rats

| Compound | death cases (Wister-strain male rats) | adverse influence on the liver or spleen organ ([1]; 3 months) | uptake by and disappearance from the reticulo-endothelial organs ([1]; 3 months) | Residual Rate of perfluorobicyclo compound ([1]; Liver, 1 week after administration) | Residual Rate of perfluorobicyclo compound ([1]; Liver, 2 weeks after administration) | Residual Rate of perfluorobicyclo compound ([1]; Liver, 3 months after administration) | Residual Rate of perfluorobicyclo compound ([1]; Liver, 4 weeks after administration) | Residual Rate of perfluorobicyclo compound ([1]; Spleen, 1 week after administration) | Residual Rate of perfluorobicyclo compound ([1]; Spleen, 2 weeks after administration) | Residual Rate of perfluorobicyclo compound ([1]; Spleen, 3 months after administration) | Residual Rate of perfluorobicyclo compound ([1]; Spleen, 4 weeks after administration) |
| --- | --- | --- | --- | --- | --- | --- | --- | --- | --- | --- | --- |
| FC(F)(F)C(F)(F)C1(F)N2C(F)(F)C(F)(F)C(F)(F)C(F)(F)C2(F)C(F)(F)C(F)(F)C1(F)F (stereo not drawn) [Example 101, perfluoro-4-ethyloctahydroquinolidine] | no death case | – | – | – | – | – | – | – | – | – | – |
| FC(F)(F)C1(F)N2C(F)(F)C(F)(F)C(F)(F)C(F)(F)C2(F)C(F)(F)C(F)(F)C1(F)F (stereo not drawn) [Example 1, perfluoro-4-methyloctahydroquinolidine] | no death case | no evidence of adverse influence on the liver or spleen organ | taken up in greater amounts by the reticulo-endothelial organs shortly after the administration, but soon disappeared rapidly | 19.92% | 8.66% | 0.30% | 1.88% | 11.61% | 9.33% | 0.09% | 2.45% |
